pIC50: −log10 of the molar value. Where only a bound is given, the exact number is not on record here.

Broadly, the pIC50 is the IC50 on a negative log10 scale, so that one unit is a factor of ten. The low end stands for a high IC50, the high end for a low IC50.

This experiment concerns the target T1, human 15-PGDH (Homo sapiens, UniProt P15428).
T1 construct: purchased R&D System 5660-DH
T1 sequence (P15428 1-266): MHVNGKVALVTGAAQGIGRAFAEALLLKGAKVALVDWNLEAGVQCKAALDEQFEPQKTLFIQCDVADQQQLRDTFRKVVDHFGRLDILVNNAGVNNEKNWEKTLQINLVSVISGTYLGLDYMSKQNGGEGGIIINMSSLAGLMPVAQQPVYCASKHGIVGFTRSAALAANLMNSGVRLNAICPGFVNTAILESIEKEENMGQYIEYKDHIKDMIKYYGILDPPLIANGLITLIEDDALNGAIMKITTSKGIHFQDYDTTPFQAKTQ
Nature of the experiment: Evaluation of 15-PGDH inhibitory activity (fluorescence enzyme assay, NAD+/PGE2). The note with it: human 15-PGDH enzyme, fluorescence Vmax. In kind it is biochemical. How it is done:
15-PGDH inhibition activity of Example compounds was measured as follows. 6.7 ng of human 15-PGDH (R&D System# 5660-DH) enzyme (10 µL) was added to a black 96 well plate, 60 µL of buffer (50 mM Tris-HCl, pH 7.5, 0.01% Tween 20) was added, and 10 µL of 200 µM β-Nicotinamide adenine dinucleotide sodium salt (Sigma, Cat# N0632-5G) was added. 10 µL of (10x) compound solution in DMSO was added and reacted for 10 minutes at room temperature.

Regarding `O=C(c1cc2c(-c3ccc4c(c3)OCO4)ncnc2[nH]1)N1CCCCC1` [Example 177, (4-(benzo[d][1,3]dioxol-5-yl)-7H-pyrrolo[2,3-d]pyrimidin-6-yl)(piperidin-1-yl)methanone], the pIC50 was less than 6.00. Regarding `O=C(c1cnn2c(-c3ccc(C(F)(F)F)nc3Cl)cccc12)N1CCCCC1` [Example 272, (7-(2-chloro-6-(trifluoromethyl)pyridin-3-yl)pyrazolo[1,5-a]pyridin-3-yl)(piperidin-1-yl)methanone], the pIC50 is not below 7.00. Compound `O=C(c1cnc2c(-c3ccc([N+](=O)[O-])cc3)cccn12)N1CCCCC1` [Example 163, (8-(4-nitrophenyl)imidazo[1,2-a]pyridin-3-yl)(piperidin-1-yl)methanone] gave a pIC50 not below 7.00. As for `CC(=O)Nc1ccc(-c2cccc3c(C(=O)N4CCCCC4)cnn23)cc1` [Example 97, N-(4-(3-(piperidine-1-carbonyl)pyrazolo[1,5-a]pyridin-7-yl)phenyl)acetamide], the pIC50 is not below 7.00.

In the case of `O=C(c1cnn2c(-c3cccc4ccccc34)cccc12)N1CCCCC1` [Example 128, (7-(naphthalen-1-yl)pyrazolo[1,5-a]pyridin-3-yl)(piperidin-1-yl)methanone], the pIC50 was not below 7.00. In turn, `O=C(c1cnn2c(-c3ccc4cn[nH]c4c3)cccc12)N1CCCCC1` [Example 125, (7-(1H-indazol-6-yl)pyrazolo[1,5-a]pyridin-3-yl)(piperidin-1-yl)methanone] had a negative-log IC50 (pIC50) not below 7.00. Compound `O=C(c1cnn2c(-c3cccc(Cl)c3)cccc12)N1CCCCC1` [Example 2, (7-(3-chlorophenyl)pyrazolo[1,5-a]pyridin-3-yl)(piperidin-1-yl)methanone] had a pIC50 not below 7.00.

In the case of `O=C(c1cnn2c(-c3cc4ccccc4o3)cccc12)N1CCCCC1` [Example 123, (7-(benzofuran-2-yl)pyrazolo[1,5-a]pyridin-3-yl)(piperidin-1-yl)methanone], the pIC50 was not below 7.00. `O=C(c1cnn2c(-c3ccc4[nH]c(=O)ccc4c3)cccc12)N1CCCCC1` [Example 145, 6-(3-(piperidine-1-carbonyl)pyrazolo[1,5-a]pyridin-7-yl)quinolin-2(1H)-one] gave a pIC50 not below 7.00. `O=C(c1cnn2c(-c3ccc4[nH]ccc4c3)cccc12)N1CCCCC1` [Example 126, (7-(1H-indol-5-yl)pyrazolo[1,5-a]pyridin-3-yl)(piperidin-1-yl)methanone] gave a negative logarithm of the IC50 (pIC50) not below 7.00.

`CC(C)(C)OC(=O)N1CCN(C(=O)c2cccc(-c3cccc4c(C(=O)N5CCCCC5)cnn34)c2)CC1` [Example 35, tert-butyl 4-(3-(3-(piperidine-1-carbonyl)pyrazolo[1,5-a]pyridin-7-yl)benzoyl)piperazine-1-carboxylate] had a negative-log IC50 (pIC50) not below 7.00. Regarding `O=C(c1cc2nc(-c3ccc(F)cc3)ccc2[nH]1)N1CCCCC1` [Example 182, (5-(4-fluorophenyl)-1H-pyrrolo[3,2-b]pyridin-2-yl)(piperidin-1-yl)methanone], the pIC50 was 6.00 to 7.00. In turn, `O=C(c1cc2nc(-c3ccc4c(c3)OCO4)ccc2[nH]1)N1CCCCC1` [Example 173, (5-(benzo[d][1,3]dioxol-5-yl)-1H-pyrrolo[3,2-b]pyridin-2-yl)(piperidin-1-yl)methanone] gave a pIC50 not below 7.00.

Consider `O=C(c1cnn2cc(-c3cccc(Cl)c3)ccc12)N1CCCCC1` [Example 170, (6-(3-chlorophenyl)pyrazolo[1,5-a]pyridin-3-yl)(piperidin-1-yl)methanone], for which the pIC50 is not below 7.00. The compound `O=C(c1cnn2c(-c3ccccc3)cccc12)C1CCCCC1` [Example 158, cyclohexyl(7-phenylpyrazolo[1,5-a]pyridin-3-yl)methanone] gave a pIC50 of 6.00 to 7.00. For `O=C(c1cnn2c(-c3ccc([N+](=O)[O-])cc3)cccc12)N1CCCCC1` [Example 13, (7-(4-nitrophenyl)pyrazolo[1,5-a]pyridin-3-yl)(piperidin-1-yl)methanone] the value was not below 7.00.

`O=C(c1n[nH]c2c(-c3cccc(Cl)c3)cccc12)N1CCCCC1` [Example 161, (7-(3-chlorophenyl)-1H-indazol-3-yl)(piperidin-1-yl)methanone]: the pIC50 was less than 6.00. With `O=C(c1cnn2c(-c3ccccc3)cccc12)N1CCCCC1` [Example 1] the figure was not below 7.00; with `O=C(c1cc2nc(-c3cccc(Cl)c3)ccc2[nH]1)N1CCCCC1` [Example 185, (5-(3-chlorophenyl)-1H-pyrrolo[3,2-b]pyridin-2-yl)(piperidin-1-yl)methanone], 6.00 to 7.00.

`O=C(c1cc2nc(-c3ccc(O)c(Cl)c3)ccc2[nH]1)N1CCCCC1` [Example 186, (5-(3-chloro-4-hydroxyphenyl)-1H-pyrrolo[3,2-b]pyridin-2-yl)(piperidin-1-yl)methanone] had a pIC50 of 6.00 to 7.00.

`CN1Cc2cc(-c3cccc4c(C(=O)N5CCCCC5)cnn34)ccc2C1=O` [Example 144, 2-methyl-5-(3-(piperidine-1-carbonyl)pyrazolo[1,5-a]pyridin-7-yl)isoindolin-1-one] had a pIC50 not below 7.00. For `O=C(c1cnc2c(-c3cccc(Cl)c3)cccn12)N1CCCCC1` [Example 162, (8-(3-chlorophenyl)imidazo[1,2-a]pyridin-3-yl)(piperidin-1-yl)methanone], the pIC50 is not below 7.00. For `COc1ccc(-c2ccc3[nH]c(C(=O)N4CCCCC4)cc3n2)cc1` [Example 179, (5-(4-methoxyphenyl)-1H-pyrrolo[3,2-b]pyridin-2-yl)(piperidin-1-yl)methanone], the pIC50 was 6.00 to 7.00. Turning to `Cn1nccc1-c1cccc2c(C(=O)N3CCCCC3)cnn12` [Example 25, (7-(1-methyl-1H-pyrazol-5-yl)pyrazolo[1,5-a]pyridin-3-yl)(piperidin-1-yl)methanone], the pIC50 was not below 7.00. As for `COc1ccc(-c2cccc3c(C(=O)N4CCCCC4)nnn23)cc1` [Example 168, (7-(4-methoxyphenyl)-[1,2,3]triazolo[1,5-a]pyridin-3-yl)(piperidin-1-yl)methanone], the pIC50 is 6.00 to 7.00. As for `O=C(c1cnn2c(-c3coc4ccccc34)cccc12)N1CCCCC1` [Example 122, (7-(benzofuran-3-yl)pyrazolo[1,5-a]pyridin-3-yl)(piperidin-1-yl)methanone], the pIC50 was not below 7.00. In the case of `Cn1ccc2ccc(-c3cccc4c(C(=O)N5CCCCC5)cnn34)cc2c1=O` [Example 135, 2-methyl-7-(3-(piperidine-1-carbonyl)pyrazolo[1,5-a]pyridin-7-yl)isoquinolin-1(2H)-one], the pIC50 is not below 7.00. Regarding `COc1ccc(-c2cccc3c(C(=O)N4CCCCC4)cnn23)cc1OC` [Example 24, (7-(3,4-dimethoxyphenyl)pyrazolo[1,5-a]pyridin-3-yl)(piperidin-1-yl)methanone], the pIC50 is not below 7.00. For `O=C(c1cc2nc(-c3ccc4c(c3)OCO4)ncc2[nH]1)N1CCCCC1` [Example 187, (2-(benzo[d][1,3]dioxol-5-yl)-5H-pyrrolo[3,2-d]pyrimidin-6-yl)(piperidin-1-yl)methanone], the pIC50 is 6.00 to 7.00.

In turn, `COc1ccc(-c2ccc3[nH]c(C(=O)N4CCCCC4)cc3n2)cc1OC` [Example 181, (5-(3,4-dimethoxyphenyl)-1H-pyrrolo[3,2-b]pyridin-2-yl)(piperidin-1-yl)methanone] had a pIC50 of 6.00 to 7.00. For `O=C(c1cc2nc(-c3ccncc3)ccc2[nH]1)N1CCCCC1` [Example 184, piperidin-1-yl(5-(pyridin-4-yl)-1H-pyrrolo[3,2-b]pyridin-2-yl)methanone], the pIC50 was 6.00 to 7.00. `O=C(c1cc2nc(-c3ccc(Cl)cc3)ccc2[nH]1)N1CCCCC1` [Example 180, (5-(4-chlorophenyl)-1H-pyrrolo[3,2-b]pyridin-2-yl)(piperidin-1-yl)methanone] had a pIC50 of 6.00 to 7.00. `O=C(c1cc2nc(-c3ccc4c(c3)OCCO4)ccc2[nH]1)N1CCCCC1` [Example 178, (5-(2,3-dihydrobenzo[b][1,4]dioxin-6-yl)-1H-pyrrolo[3,2-b]pyridin-2-yl)(piperidin-1-yl)methanone] gave a pIC50 of 6.00 to 7.00. Regarding `O=C(c1c[nH]c2c(-c3cccc(Cl)c3)cccc12)N1CCCCC1` [Example 169, (7-(3-chlorophenyl)-1H-indol-3-yl)(piperidin-1-yl)methanone], the pIC50 was not below 7.00.

The compound `O=C(c1cc2c(-c3ccc4c(c3)OCO4)nccc2[nH]1)N1CCCCC1` [Example 174, (4-(benzo[d][1,3]dioxol-5-yl)-1H-pyrrolo[3,2-c]pyridin-2-yl)(piperidin-1-yl)methanone] showed a pIC50 of less than 6.00. Take `O=C(c1cc2c(-c3ccc4c(c3)OCO4)cncc2[nH]1)N1CCCCC1` [Example 175, (4-(benzo[d][1,3]dioxol-5-yl)-1H-pyrrolo[2,3-c]pyridin-2-yl)(piperidin-1-yl)methanone]: the pIC50 is less than 6.00. `COc1cccc(-c2cccc3c(C(=O)N4CCCCC4)cnn23)c1` [Example 4, (7-(3-methoxyphenyl)pyrazolo[1,5-a]pyridin-3-yl)(piperidin-1-yl)methanone] had a pIC50 not below 7.00.

Compound `O=C(c1cc2nc(-c3ccoc3)ccc2[nH]1)N1CCCCC1` [Example 183, (5-(furan-3-yl)-1H-pyrrolo[3,2-b]pyridin-2-yl)(piperidin-1-yl)methanone] showed a pIC50 of less than 6.00.

The compound `O=C(Nc1cccnc1)c1ccc(-c2cccc3c(C(=O)N4CCCCC4)cnn23)cc1` [Example 71, 4-(3-(piperidine-1-carbonyl)pyrazolo[1,5-a]pyridin-7-yl)-N-(pyridin-3-yl)benzamide] gave a pIC50 not below 7.00.

Source of the values: EP4653437A2 (Innovo Therapeutics Inc., priority 2023, dated 2024).
